According to patent publication US10570096B2, “Diamino pyridine derivatives” (NOVARTIS AG, priority 2015, dated 2020):

Experiments:
Format in all cases: biochemical
[1] = biological target: T1, JAK2 (Homo sapiens, UniProt O60674); test: Enzymatic JAK assay (Caliper mobility shift), JAK2; conditions: GST-JAK2 (808-1132) kinase domain, 1.8 nM enzyme, 20 μM ATP (KmATP), 30° C., 60 minutes
T1 construct: GST-JAK2 (808-1132); host or cells: insect cells
Protocol: (§1) Enzymatic JAK assays. For enzyme assays affinity-purified GST-fusions of the active kinase domains (GST-JAK1 (866-1154), GST-JAK2 (808-1132), GST-JAK3 (811-1124), and GST-TYK2(888-1187) were expressed in insect cells or purchased from Invitrogen (Carlsbad, USA). All assays were performed in 384-well microtiter plates with 8-point serial dilutions of compounds. The kinase reactions were started by stepwise addition of 4.5 μl per well of a 2× peptide/ATP-solution and 4.5 μl per well of a 2× enzyme solution. The final ATP concentration used in the assays corresponds to the individually determined KmATP for the respective enzyme. Assay buffer: 50 mM HEPES, pH 7.5, 1 mM DTT, 0.02% Tween20, 0.02% BSA, 0.6% DMSO, 10 mM beta-glycerophosphate, and 10 μM sodium orthovanadate. Other components were adjusted specifically for the respective kinase assays: JAK1: 16 nM enzyme, 70 μM ATP, 2 μM peptide substrate, 12 mM MgCl2. JAK2: 1.8 nM enzyme, 20 μM ATP, 2 μM peptide substrate, 9 mM MgCl2. JAK3: 13 nM enzyme, 18 μM ATP, 2 μM peptide substrate, 1.5 mM MgCl2. Tyk2: 3.5 nM enzyme, 35 μM ATP, 2 μM peptide substrate, 9 mM MgCl2. […] Phosphorylated and unphosphorylated peptides were separated using the Caliper microfluidic mobility shift technology on a Caliper LC3000 workstation and kinase activities were calculated from the amounts of formed phospho-peptide.

[2] = biological target: T2, Tyk2 (Homo sapiens, UniProt P29597); test: Enzymatic JAK assay (Caliper mobility shift), Tyk2; conditions: GST-TYK2(888-1187) kinase domain, 3.5 nM enzyme, 35 μM ATP (KmATP), 30° C., 60 minutes
T2 construct: GST-TYK2(888-1187); host or cells: insect cells
T2 sequence (P29597 888-1187): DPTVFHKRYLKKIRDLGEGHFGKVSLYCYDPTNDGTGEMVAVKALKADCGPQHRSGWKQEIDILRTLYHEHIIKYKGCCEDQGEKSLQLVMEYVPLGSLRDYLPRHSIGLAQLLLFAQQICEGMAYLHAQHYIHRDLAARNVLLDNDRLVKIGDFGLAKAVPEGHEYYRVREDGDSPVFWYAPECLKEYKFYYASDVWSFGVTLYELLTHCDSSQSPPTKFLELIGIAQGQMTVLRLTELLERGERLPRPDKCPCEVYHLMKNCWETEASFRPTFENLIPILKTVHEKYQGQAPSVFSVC
Protocol: as §1

[3] = biological target: T3, JAK1 (Homo sapiens, UniProt P23458); test: Enzymatic JAK assay (Caliper mobility shift), JAK1; conditions: GST-JAK1 (866-1154) kinase domain, 16 nM enzyme, 70 μM ATP (KmATP), 30° C., 60 minutes
T3 construct: GST-fusions of the active kinase domains (GST-JAK1 (866-1154)); host or cells: insect cells
T3 sequence (P23458 866-1154): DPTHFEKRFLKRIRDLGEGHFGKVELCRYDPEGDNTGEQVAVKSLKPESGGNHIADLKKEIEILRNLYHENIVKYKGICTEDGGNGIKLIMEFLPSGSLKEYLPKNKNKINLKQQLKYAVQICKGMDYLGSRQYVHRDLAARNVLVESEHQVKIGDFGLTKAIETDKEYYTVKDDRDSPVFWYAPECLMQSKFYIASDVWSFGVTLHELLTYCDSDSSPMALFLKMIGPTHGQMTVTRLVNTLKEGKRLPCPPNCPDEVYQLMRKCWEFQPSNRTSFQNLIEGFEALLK
Protocol: as §1

[4] = biological target: T4, JAK3 (Homo sapiens, UniProt P52333); test: Enzymatic JAK assay (Caliper mobility shift), JAK3; conditions: GST-JAK3 (811-1124) kinase domain, 13 nM enzyme, 18 μM ATP (KmATP), 30° C., 60 minutes
T4 construct: GST-JAK3 (811-1124); host or cells: insect cells
T4 sequence (P52333 811-1124): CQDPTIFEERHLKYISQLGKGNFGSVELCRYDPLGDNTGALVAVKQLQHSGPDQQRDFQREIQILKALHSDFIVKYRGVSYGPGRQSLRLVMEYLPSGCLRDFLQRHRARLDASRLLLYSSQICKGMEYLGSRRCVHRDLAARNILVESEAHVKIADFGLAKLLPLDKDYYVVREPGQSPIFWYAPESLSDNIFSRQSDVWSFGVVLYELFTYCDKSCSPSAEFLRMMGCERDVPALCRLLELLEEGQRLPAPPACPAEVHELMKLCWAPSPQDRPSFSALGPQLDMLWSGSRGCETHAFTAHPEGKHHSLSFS
Protocol: as §1

T1 sequence (O60674 808-1132): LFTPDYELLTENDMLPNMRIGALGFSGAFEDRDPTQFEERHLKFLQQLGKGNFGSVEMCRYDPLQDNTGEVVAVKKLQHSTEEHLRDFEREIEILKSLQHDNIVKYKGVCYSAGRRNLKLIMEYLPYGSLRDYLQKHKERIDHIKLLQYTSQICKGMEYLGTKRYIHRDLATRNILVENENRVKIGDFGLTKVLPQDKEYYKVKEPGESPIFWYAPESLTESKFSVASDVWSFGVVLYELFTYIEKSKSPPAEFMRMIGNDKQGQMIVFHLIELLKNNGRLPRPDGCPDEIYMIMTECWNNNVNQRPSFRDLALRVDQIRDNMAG

Compound	IC50 [1] [µM]	IC50 [2] [µM]	IC50 [3] [µM]	IC50 [4] [µM]
Cc1cccc(Nc2cc(Nc3ccccc3Cl)c(C(N)=O)cn2)n1 [Example 2, 4-((2-chlorophenyl)amino)-6-((6-methylpyridin-2-yl)amino)nicotinamide]	0.025	0.024	0.012	0.015
NC(=O)c1cnc(Nc2ccccn2)cc1Nc1ccccc1Cl [Example 1, 4-((2-chlorophenyl)amino)-6-(pyridin-2-ylamino)nicotinamide]	0.014	0.014	0.018	0.009
